# Assay results as given in US20100068204A1, “4-ARYLOXYQUINOLIN-2(1H)-ONES AS MTOR KINASE AND PI3 KINASE INHIBITORS, FOR USE AS ANTI-CANCER AGENTS” (Wyeth, priority 2008, published 2010).
# What was measured:
# [1] = system: MDA468 breast tumor cells; assay: In vitro cell growth assay (MTS), MDA468; type: cell-based, human; conditions: three days after drug treatment
# Method: (§1) Cell lines used were human adenocarcinoma (LoVo), […], prostate (LNCap), breast (MDA468, MCF7), colon (HCT116), renal (HTB44 A498), and ovarian (OVCAR3) tumor cell lines. The tumor cells were plated in 96-well culture plates at approximately 3000 cells per well. One day following plating, various concentrations of inhibitors in DMSO were added to cells (final DMSO concentration in cell assays was 0.25%). Three days after drug treatment, viable cell densities were determined by cell mediated metabolic conversion of the dye MTS, a well-established indicator of cell proliferation in vitro. Cell growth assays were performed using kits purchased from Promega Corporation (Madison, Wis.), following the protocol provided by the vendor. Measuring absorbance at 490 nm generated MTS assay results. Compound effect on cell proliferation was assessed relative to untreated control cell growth.
# [2] = target: PI3Kα (Homo sapiens, UniProt P42336); assay: PI3Kα fluorescence polarization assay; type: biochemical; conditions: 20 μM PIP2, 25 μM ATP
# PI3Kα, sequence (P42336 whole entry, species assumed): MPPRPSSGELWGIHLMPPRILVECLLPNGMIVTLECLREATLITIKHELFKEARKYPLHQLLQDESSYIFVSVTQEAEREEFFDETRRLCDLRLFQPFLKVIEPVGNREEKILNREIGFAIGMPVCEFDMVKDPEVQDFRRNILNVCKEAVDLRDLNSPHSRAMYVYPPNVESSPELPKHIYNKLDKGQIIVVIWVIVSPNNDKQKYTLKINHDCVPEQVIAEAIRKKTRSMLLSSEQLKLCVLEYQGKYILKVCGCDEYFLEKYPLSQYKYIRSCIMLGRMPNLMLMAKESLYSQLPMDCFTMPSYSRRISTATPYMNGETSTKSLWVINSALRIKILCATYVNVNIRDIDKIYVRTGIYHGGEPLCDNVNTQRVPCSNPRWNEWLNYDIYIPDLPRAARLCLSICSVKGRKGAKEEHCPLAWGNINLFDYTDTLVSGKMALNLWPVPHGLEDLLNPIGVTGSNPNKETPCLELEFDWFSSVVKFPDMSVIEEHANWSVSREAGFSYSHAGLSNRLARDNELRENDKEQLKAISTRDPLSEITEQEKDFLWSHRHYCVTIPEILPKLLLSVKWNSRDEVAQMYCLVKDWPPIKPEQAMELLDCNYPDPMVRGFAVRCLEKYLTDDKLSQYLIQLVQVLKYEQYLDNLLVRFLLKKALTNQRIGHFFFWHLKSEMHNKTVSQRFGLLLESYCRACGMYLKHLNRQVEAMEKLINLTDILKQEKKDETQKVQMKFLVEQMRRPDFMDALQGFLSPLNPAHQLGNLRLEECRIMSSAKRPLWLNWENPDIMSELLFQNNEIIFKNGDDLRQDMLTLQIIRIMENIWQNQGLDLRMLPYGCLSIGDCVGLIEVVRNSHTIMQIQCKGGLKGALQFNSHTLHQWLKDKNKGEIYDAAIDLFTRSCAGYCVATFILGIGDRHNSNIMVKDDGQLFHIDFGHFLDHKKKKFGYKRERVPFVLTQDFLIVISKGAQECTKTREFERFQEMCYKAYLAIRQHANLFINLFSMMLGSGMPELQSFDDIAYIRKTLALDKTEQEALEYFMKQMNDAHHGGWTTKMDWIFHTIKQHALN
# PI3Kα, sequence (P27986 whole entry partner, species assumed): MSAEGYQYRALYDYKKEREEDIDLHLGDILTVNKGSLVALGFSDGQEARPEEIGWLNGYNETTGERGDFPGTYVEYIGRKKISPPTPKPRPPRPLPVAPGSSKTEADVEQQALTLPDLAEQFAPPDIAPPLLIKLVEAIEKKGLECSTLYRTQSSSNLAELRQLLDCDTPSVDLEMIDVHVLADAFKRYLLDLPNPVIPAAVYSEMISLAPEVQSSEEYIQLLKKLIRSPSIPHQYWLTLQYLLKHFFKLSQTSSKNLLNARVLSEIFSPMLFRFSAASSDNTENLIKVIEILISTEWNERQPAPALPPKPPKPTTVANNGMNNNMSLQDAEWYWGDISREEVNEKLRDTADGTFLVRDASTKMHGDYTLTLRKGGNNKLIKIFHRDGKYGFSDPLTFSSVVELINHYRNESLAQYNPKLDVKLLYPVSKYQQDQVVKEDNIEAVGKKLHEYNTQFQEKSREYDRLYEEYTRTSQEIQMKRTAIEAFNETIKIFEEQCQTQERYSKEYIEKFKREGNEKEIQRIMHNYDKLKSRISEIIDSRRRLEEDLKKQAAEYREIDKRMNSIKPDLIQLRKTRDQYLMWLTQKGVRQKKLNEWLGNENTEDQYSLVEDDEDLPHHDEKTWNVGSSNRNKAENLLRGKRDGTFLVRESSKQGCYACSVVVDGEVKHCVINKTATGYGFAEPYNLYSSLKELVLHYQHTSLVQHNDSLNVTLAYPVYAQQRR
# Method: The reaction buffer was 20 mM HEPES pH7.5, 2 mM MgCl2, 0.05% CHAPS, and 0.01% βME (added fresh). The substrate solution was 40 μM PIP2 (diC8, Echelon, Salt Lake City Utah cat #P-4508, 1 mM in water) and 50 μM ATP in the reaction buffer. Nunc 384-well black polypropylene fluorescent plates were used for PI3K assays. The assay is run by putting 9.5 μl of freshly diluted enzyme in the reaction buffer per well, adding 0.5 μl of diluted drug or DMSO, and mixing. Then 10 μl of the substrate solution is added to each well to start the reaction. A final concentration of 20 μM PIP2 and 25 μM ATP in the reaction was used. Reactions were allowed to proceed for 30-60 minutes at room temperature. After 30-60 minutes, 20 μl of a solution of 10 nM TAMRA detector (Red detector probe-Echelon) and 2.5 uM of GST-murine GRP (1.5 mg/ml in 17% glycerol) was added per well to stop the reaction. The resulting solution was mixed well and allowed to stand for 90-110 minutes before reading plate. Assay Plates were read on Perkin-Elmer Envision plate readers with appropriate filters for Tamra [BODIPY-TMRI(1,3,4,5)P4]. Data obtained were used to calculate enzymatic activity and enzyme inhibition by inhibitor compounds. It is important to keep Red probe solutions dark. This procedure is adapted from Echelon Biosciences Inc procedure for their PI3-Kinase fluorescence polarization activity Assay kit Product number K-1100.
# [3] = system: LNCap prostate tumor cells; assay: In vitro cell growth assay (MTS), LNCap; type: cell-based, human; conditions: three days after drug treatment
# Method: as §1
# [4] = target: human TOR (FLAG-TOR) (Homo sapiens, UniProt P42345); assay: mTOR enzyme assay (DELFIA format, purified enzyme); type: biochemical; conditions: 800 ng/ml FLAG-TOR, 100 μM ATP, 1.25 μM His6-S6K; read-out: mTOR Kinase IC50
Compound,"IC50 ([1]; Homo sapiens, 72 h)",IC50 [2],"IC50 ([3]; Homo sapiens, LNCaP, 72 h)",IC50 [4],IC50 [1],IC50 [3]
O=c1cc(Oc2ccc(-c3ccc(F)cc3)cc2)c2ccccc2[nH]1,> 60 µM,9.66 µM,> 60 µM,15.8 µM,–,–
CN1CCC(Nc2cccc(Oc3cc(=O)[nH]c4ccccc34)c2)CC1,12 µM,> 10 µM,6 µM,0.32 µM,–,–
O=c1cc(Oc2cccc(-c3cccc(NCc4cccnc4)c3)c2)c2ccccc2[nH]1,28 µM,> 10 µM,8 µM,0.51 µM,–,–
CN(C)CCNc1ccc(-c2cccc(Oc3cc(=O)[nH]c4ccccc34)c2)cc1,8 µM,5 µM,4.8 µM,0.18 µM,–,–
O=c1cc(Oc2ccc(-c3ccc(NCCN4CCOCC4)nc3)cc2)c2ccccc2[nH]1,8 µM,> 10 µM,1.05 µM,1.08 µM,–,–
O=c1cc(Oc2cccc(NCc3ccco3)c2)c2ccccc2[nH]1,13 µM,4.65 µM,3.4 µM,0.13 µM,–,–
Nc1nc(Cl)c(CNc2cccc(Oc3cc(=O)[nH]c4ccccc34)c2)c(Cl)n1,3.5 µM,> 10 µM,5.2 µM,0.17 µM,–,–
O=c1cc(Oc2ccc(-c3ccoc3)cc2)c2ccccc2[nH]1,> 60 µM,1.94 µM,> 60 µM,> 20 µM,–,–
CN1CCC(Nc2ccc(-c3cccc(Oc4cc(=O)[nH]c5ccccc45)c3)cc2)CC1,5 µM,8 µM,2.8 µM,0.05 µM,–,–
CC(=O)N1CCC(C(=O)Nc2ccc3[nH]c(=O)cc(Oc4ccccc4)c3c2)CC1,> 60 µM,> 10 µM,> 60 µM,> 20 µM,–,–
O=c1cc(Oc2cccc(NCc3cncc(F)c3)c2)c2ccccc2[nH]1,7.2 µM,8.99 µM,1.9 µM,0.05 µM,–,–
CCN1CCCC(Nc2ccc(-c3cccc(Oc4cc(=O)[nH]c5ccccc45)c3)cc2)C1 (stereo not shown),10 µM,8 µM,3.9 µM,0.31 µM,–,–
CN(C)CCCOc1ccc(-c2ccc(Oc3cc(=O)[nH]c4ccccc34)cc2)cn1,3.9 µM,> 10 µM,2.1 µM,0.82 µM,–,–
Cc1cccc(Oc2cc(=O)[nH]c3ccccc23)c1 [drawing 249],–,0.736 µM,–,0.24 µM,20 µM,7.5 µM
O=c1cc(Oc2cccc(-c3ccc(N4CCOCC4)cc3)c2)c2ccccc2[nH]1,35 µM,10.4 µM,13 µM,0.49 µM,–,–
O=c1cc(Oc2cccc(NCc3ccc(-c4cccc(CO)n4)cc3)c2)c2ccccc2[nH]1,10 µM,3.92 µM,4.3 µM,0.09 µM,–,–
CN(Cc1cccnc1)c1cccc(Oc2cc(=O)[nH]c3ccccc23)c1 [drawing 372],20 µM,1.96 µM,13 µM,0.42 µM,–,–
O=c1cc(Oc2ccc(C3N=CCN3)cc2)c2ccccc2[nH]1 (stereo not shown),60 µM,> 10 µM,45 µM,0.78 µM,–,–
Cn1cc(CN(Cc2ccn(C)n2)c2cccc(Oc3cc(=O)[nH]c4ccccc34)c2)cn1,3 µM,4.62 µM,3 µM,0.23 µM,–,–
Cc1ccc(Oc2cc(=O)[nH]c3ccccc23)cc1,> 60 µM,4.17 µM,18 µM,1.15 µM,–,–
O=c1cc(Oc2ccc(-c3cccnc3)cc2)c2ccccc2[nH]1,16.6 µM,3.29 µM,2.15 µM,1.75 µM,–,–
NCc1ccc(Oc2cc(=O)[nH]c3ccccc23)cc1,35 µM,> 10 µM,12 µM,3.95 µM,–,–
O=c1cc(Oc2cccc(C(F)(F)F)c2)c2ccccc2[nH]1,> 60 µM,8.69 µM,> 60 µM,1.35 µM,–,–
Nc1cccc(Oc2cc(=O)[nH]c3cc(Cl)ccc23)c1,> 60 µM,6.73 µM,4.5 µM,0.6 µM,–,–
Nc1ccncc1CNc1cccc(Oc2cc(=O)[nH]c3ccccc23)c1,11.5 µM,> 10 µM,8 µM,0.15 µM,–,–
